Results on 27 compounds are retold here after ChEMBL document CHEMBL5370529, “Perspectives on the current antiviral developments towards RNA-dependent RNA polymerase (RdRp) and methyltransferase (MTase) domains of dengue virus non-structural protein 5 (DENV-NS5)” (Eur J Med Chem, 2023).

Data set [1] can be described thus: Inhibition of West Nile virus recombinant N-terminal NS5-methyltransferase.
Data set [2] in a line: Cytotoxicity against hamster BHK-21 cells assessed as reduction in cell viability measured after 42 hrs by MTT assay. The data set is classed as toxicity, cell-based, Mesocricetus auratus. (In general: Tetrazolium dyes change colour on reduction, which living cells bring about.)
Data set [3] is described as follows: Inhibition of DENV RNA-dependent RNA polymerase activity. Also on record: species or system Dengue virus.
The subject of data set [4] is PBMC. In words: Cytotoxicity against human PBMC cells assessed as reduction in cell viability measured after 48 hrs by Cell-titer glo luminescent assay. In kind it is functional.
Data set [5] in a line: Cytotoxicity against hamster BHK-21 cells assessed as reduction in cell viability measured after 48 hrs by Cell-titer glo luminescent assay. The data set is classed as toxicity, cell-based, Mesocricetus auratus.
Data set [6] deals with A549. Description: Cytotoxicity against human A549 cells assessed as reduction in cell viability measured after 48 hrs by Cell-titer glo luminescent assay. The data set is classed as functional.
The test system of data set [7] is Huh-7. In words: Cytotoxicity against human Huh-7 cells assessed as reduction in cell viability measured after 48 hrs by Cell-titer glo luminescent assay. In kind it is functional.
A short description of data set [8]: Inhibition of Dengue virus RNA-dependent RNA polymerase in human Huh-7 cells. The data set is classed as cell-based.
Data set [9] relates to dengue virus type 2. In words: Antiviral activity against Dengue virus 2 infected in African green monkey Vero cells assessed as suppression of viral replication. The data set is classed as functional, organism-based.
A short description of data set [10]: Cytotoxicity against African green monkey Vero cells assessed as reduction in cell viability measured after 72 hrs by MTT assay. In kind it is toxicity, cell-based. Conditions: chlorocebus sabaeus.
Data set [11] addresses T1, Nonstructural protein 5 (Dengue virus, UniProt V5TFZ2). Description: Inhibition of DENV His-tagged recombinant NS5/RNA-dependent RNA polymerase.
The nature of data set [12]: Inhibition of DENV-2 NS5 polymerase incubated for 1 hr by fluorescence based analysis. Details: species or system dengue virus type 2.
A short description of data set [13]: Cytotoxicity against African green monkey Vero E6 cells assessed as reduction in cell viability measured after 96 hrs by MTT assay. The data set is classed as toxicity, cell-based. Particulars: chlorocebus sabaeus, Vero E6 (Vero C1008) cells.
Data set [14] can be described thus: Inhibition of DENV3 N-terminal 6-His-tagged RNA-dependent RNA polymerase expressed in Escherichia coli BL21. Details: species or system dengue virus type 3.
Data set [15] is described as follows: Cytotoxicity against African green monkey Vero cells assessed as reduction in cell viability measured after 3 to 5 days by Cell titer-glo luminescent assay. The data set is classed as toxicity, cell-based. Particulars: chlorocebus sabaeus, time 3-5 day. (In general: In ATP-based viability assays light output follows the ATP content of the culture.)
Data set [16] is described as follows: Inhibition of DENV-3 RNA-dependent RNA polymerase expressed in Escherichia coli. Details: species or system dengue virus type 3.
Data set [17] is described as follows: Inhibition of DENV-4 full length NS5/RNA-dependent RNA polymerase. Also on record: species or system dengue virus type 4.
Data set [18] in a line: Cytotoxicity against hamster BHK-21 cells assessed as reduction in cell viability measured after 24 hrs by MTT assay. The data set is classed as toxicity, cell-based, Mesocricetus auratus.
The nature of data set [19]: Cytotoxicity against asian tiger mosquito C6/36 cells assessed as reduction in cell viability measured after 24 hrs by MTT assay. The data set is classed as toxicity, cell-based. Conditions: aedes albopictus.
A short description of data set [20]: Inhibition of DENV-2 full length His-tagged RNA-dependent RNA polymerase expressed in Escherichia coli Rosetta cells BL21 (DE3) cells incubated for 2 hrs. Details: species or system dengue virus type 2.
The nature of data set [21]: Cytotoxicity against human HEK293T cells assessed as reduction in cell viability measured after 48 hrs by MTT assay. The data set is classed as toxicity, cell-based, HEK-293T.
The nature of data set [22]: Inhibition of DENV RNA N7 methyltransferase. Also on record: species or system Dengue virus.
For data set [23], the system named is A549. Description: Cytotoxicity against human A549 cells assessed as reduction in cell viability measured after 48 hrs by MTT assay. In kind it is functional.
Data set [24] concerns Huh-7. In words: Cytotoxicity against human Huh-7 cells assessed as reduction in cell viability measured after 48 hrs by MTT assay. The data set is classed as functional.
Data set [25] in a line: Cytotoxicity against hamster BHK-21 cells assessed as cell growth inhibition measured after 48 hrs by MTT assay. In kind it is toxicity, cell-based, Mesocricetus auratus.
The nature of data set [26]: Cytotoxicity against monkey LLC-MK2 cells assessed as reduction in cell viability measured after 48 hrs by MTT assay. In kind it is toxicity, cell-based, Macaca mulatta. Particulars: rhesus monkey.
The target in data set [27] is T1, Nonstructural protein 5. Description: Inhibition of DENV/NS5 RNA-dependent RNA polymerase.
Data set [28] has as its system Huh-7. Description: Cytotoxicity against human Huh-7 cells assessed as reduction in cell viability measured after 48 hrs by Celltiter-glo assay. The data set is classed as functional.
Data set [29] is described as follows: Inhibition of DENV-4 full length NS5/RNA-dependent RNA polymerase in Huh-7 cells. In kind it is cell-based, dengue virus type 4.
Data set [30] deals with T1, Nonstructural protein 5. In words: Inhibition of DENV C-terminal histidine-tagged NS5/RNA-dependent RNA polymerase.
Data set [31] in a line: Inhibition of Dengue virus 3 nucleoside-2'O-methyltransferase. Details: species or system dengue virus type 3.
Data set [32] deals with T1, Nonstructural protein 5. Description: Inhibition of Dengue virus NS5/RNA-dependent RNA polymerase.
Data set [33] relates to Huh-7. Description: Cytotoxicity against human Huh-7 cells assessed as reduction in cell viability measured after 24 hrs by viral-Tox-glo assay. In kind it is functional.

Structures are written as SMILES. pIC50: −log10 of the molar value. Converted amounts (≈) assume the structure as drawn.

The term pIC50 denotes the negative decadic logarithm of the IC50, by convention in mol/L. A word on the CC50: it is the concentration at which the toxic effect on the cells reaches its halfway point. The term EC50 denotes the midpoint of the concentration-response curve.

T1 sequence (V5TFZ2 whole entry): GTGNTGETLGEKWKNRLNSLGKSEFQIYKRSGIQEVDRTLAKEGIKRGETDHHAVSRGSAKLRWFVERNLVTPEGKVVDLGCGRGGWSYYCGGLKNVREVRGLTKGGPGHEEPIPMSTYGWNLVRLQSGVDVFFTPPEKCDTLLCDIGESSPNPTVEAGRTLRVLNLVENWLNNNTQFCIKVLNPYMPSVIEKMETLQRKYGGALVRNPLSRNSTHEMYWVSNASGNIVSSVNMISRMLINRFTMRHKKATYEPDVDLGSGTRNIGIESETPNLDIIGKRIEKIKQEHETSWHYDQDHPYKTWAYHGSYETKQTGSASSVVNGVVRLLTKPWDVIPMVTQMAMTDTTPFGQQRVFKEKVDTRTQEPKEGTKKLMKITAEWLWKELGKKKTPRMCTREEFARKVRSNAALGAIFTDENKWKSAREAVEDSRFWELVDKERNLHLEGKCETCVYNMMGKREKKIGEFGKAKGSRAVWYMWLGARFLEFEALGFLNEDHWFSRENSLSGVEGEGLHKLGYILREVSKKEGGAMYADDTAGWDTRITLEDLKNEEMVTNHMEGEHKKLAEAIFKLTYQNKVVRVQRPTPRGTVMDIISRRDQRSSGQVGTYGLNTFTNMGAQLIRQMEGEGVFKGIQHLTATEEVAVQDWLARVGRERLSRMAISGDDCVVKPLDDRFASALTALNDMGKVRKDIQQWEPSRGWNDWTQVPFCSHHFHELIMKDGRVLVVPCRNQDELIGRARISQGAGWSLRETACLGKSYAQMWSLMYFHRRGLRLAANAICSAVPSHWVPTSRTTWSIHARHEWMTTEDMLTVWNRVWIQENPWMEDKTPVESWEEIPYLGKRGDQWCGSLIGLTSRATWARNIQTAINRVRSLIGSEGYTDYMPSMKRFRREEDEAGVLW

Take `CC1=C(Nc2c(C)cc(O)cc2O)C(=O)C=c2oc3c(c21)C(C)=C(Nc1c(C)cc(O)cc1O)C(=O)C=3`: the pIC50 in data set [1] is 5.25. Also, the CC50 at 42 h in data set [2] was 117 µM.
Consider `C#C[C@@]1(O)[C@H](OC(=O)C(C)C)[C@@H](COC(=O)C(C)C)O[C@H]1n1cc(C(N)=O)c2c(N)ncnc21`, for which the pIC50 in [3] is 7.00.
In the case of `C#C[C@@]1(O)[C@H](O)[C@@H](CO)O[C@H]1n1ccc2c(N)ncnc21`, the CC50 in data set [4], in [6] and in data set [7] was greater than 100 µM throughout. Also, the CC50 at 48 h in [5] was greater than 100 µM. Also, in [8], the pIC50 is 6.51.
Regarding `CC(C)(O)[C@@H]1CC[C@](C)([C@H]2[C@@H](O)C[C@@]3(C)[C@@H]4C[C@H](O[C@@H]5O[C@H](CO)[C@@H](O)[C@H](O)[C@H]5O)[C@H]5C(C)(C)[C@@H](O[C@@H]6OC[C@@H](O)[C@H](O)[C@H]6O)CC[C@@]56C[C@@]46CC[C@]23C)O1`, in data set [9], the EC50 was 1.56 µg/mL (≈ 1.99 µM). Further, the CC50 at 72 h in data set [10] is greater than 1000 µg/mL.
In the case of `CC(=O)O[C@H]1[C@H](O[C@H]2CC[C@]34C[C@]35CC[C@]3(C)[C@@H]([C@@]6(C)CC[C@@H](C(C)(C)O)O6)[C@@H](O)C[C@@]3(C)[C@@H]5C[C@H](O[C@@H]3O[C@H](CO)[C@@H](O)[C@H](O)[C@H]3O)[C@H]4C2(C)C)OC[C@@H](O)[C@@H]1O`, the EC50 in data set [9] was 1.56 µg/mL (≈ 1.89 µM). For the same compound, the CC50 at 72 h in [10] was greater than 1000 µg/mL.
On to `Nc1cc(C(F)(F)F)ccc1NC(=O)Nc1cccc(S(=O)(=O)Nc2ccc(C(=O)O)cc2)c1`, for which, in [11], the pIC50 was 3.82.
Take `Nc1cc(C(F)(F)F)ccc1NC(=O)Nc1ccc(S(=O)(=O)Nc2ccc(C(=O)O)cc2)cc1`: the pIC50 in data set [11] is 3.82.
In turn, `COc1cc(C)c(C(=O)NS(=O)(=O)c2cccc3cccnc23)cc1-c1ccc(C#CCO)s1` had a pIC50 in data set [12] of 5.72.
`O=C(N[C@@H](Cc1ccc(O)cc1)C(=O)O)c1cc(-c2ccccc2)c(=O)n2c1sc1ccc(OC3CCCCC3)cc12`: the CC50 at 96 h in data set [13] is greater than 100 µM. The compound further gave a pIC50 in data set [14] of 5.82.
For the compound `CC(=O)Oc1ccc2oc(=O)sc2c1`, in data set [15], the CC50 was 50 µM. Moreover, the pIC50 in data set [16] was 3.54; in data set [17] it was 3.35.
As to `Cc1ccc(C2N(c3ccccc3)CC3=C(CC(C)(C)CC3=O)N2c2ccccc2)cc1` (stereo not given), in data set [18], the CC50 at 24 h was determined as 10 µM.
On to `C=C1CC[C@@H]2[C@]3(C)COC(C)(C)O[C@@H]3CC[C@@]2(C)[C@@H]1C/C=C1/C(=O)OC[C@@H]1Oc1c(Cl)cc(Cl)c2ccc(C)nc12`, for which, in data set [19], the CC50 at 24 h turned out to be 15.6 µg/mL (≈ 26 µM).
With `O=C1[C@@H]2Cc3ccccc3N2[C@@H](c2ccc(O)c(O)c2)N1Nc1ccc([N+](=O)[O-])cc1`, the pIC50 in data set [20] is 5.64.
In the case of `CCC(/C(C)=C/c1cc(OC)c(OC)cc1OC)c1cc(OC)c(OC)cc1OC` (stereo not given), the CC50 at 48 h in [21] and in data set [25] was greater than 80 µM each time. In addition, the pIC50 in data set [22] was 5.35. In addition, the CC50 in [23] and in data set [24] was greater than 80 µM each time.
As to `O=C1[C@@H]2Cc3ccccc3N2[C@@H](c2ccco2)N1Nc1ccccc1`, in data set [20], the pIC50 is 5.68.
As for `CC(C)(O)[C@H]1CC[C@@](C)([C@H]2[C@@H](O)C[C@]3(C)[C@H]4C[C@@H](O)[C@H]5C(C)(C)[C@H](O[C@H]6OC[C@H](O)[C@@H](O)[C@@H]6O[C@H]6O[C@@H](CO)[C@H](O)[C@@H](O)[C@@H]6O)CC[C@]56C[C@]46CC[C@@]23C)O1`, the EC50 in data set [9] was determined as 1.56 µg/mL (≈ 1.99 µM). Moreover, in data set [10], the CC50 at 72 h was greater than 1000 µg/mL.
Consider `CC(=O)N[C@@H](C(=O)O)C(C)(C)SN=O`, for which the pIC50 in data set [11] was 3.82. The CC50 at 48 h in [26] is 200 µM.
As for `C=C1CC[C@@H]2[C@](C)(CO)[C@H](O)CC[C@@]2(C)[C@@H]1C/C=C1/C(=O)OC[C@H]1O` [ANDROGRAPHOLIDE], in data set [19], the CC50 at 24 h worked out at 15.6 µg/mL (≈ 44.6 µM).
The compound `O=c1c(O[C@@H]2O[C@@H](CO)[C@H](O)[C@H]2O)c(-c2ccc(O)c(O)c2)oc2cc(O)cc(O)c12` [AVICULARIN] had a pIC50 in data set [27] of 5.77.
Consider `CC1=C(/C=C/C(C)=C/C=C/C(C)=C/C(=O)Nc2ccc(O)cc2)C(C)(C)CCC1` [FENRETINIDE], for which the CC50 in data set [28] was no more than 10 µM. This compound also showed a negative-log IC50 (pIC50) in data set [29] of 5.30.
Take `O=c1cc(-c2ccc(Oc3c(O)cc4oc(-c5ccc(O)cc5)cc(=O)c4c3O)cc2)oc2cc(O)cc(O)c12` [HINOKIFLAVONE]: the pIC50 in [30] is 6.59.
In data set [27], `C[C@@H]1O[C@@H](Oc2c(-c3ccc(O)c(O)c3)oc3cc(O)cc(O)c3c2=O)[C@H](O)[C@H](O)[C@H]1O` [QUERCITRIN] gave a pIC50 of 5.68.
`O=c1cc(-c2ccc(O)c(-c3c(O)cc4oc(-c5ccc(O)cc5)cc(=O)c4c3O)c2)oc2cc(O)cc(O)c12` [ROBUSTAFLAVONE] showed a pIC50 in [30] of 6.48.
For `NC(=O)c1ncn([C@@H]2O[C@H](COP(=O)(O)OP(=O)(O)OP(=O)(O)O)[C@@H](O)[C@H]2O)n1` [RTP], in data set [31], the pIC50 was 4.00.
`C[C@@H]1O[C@@H](OC[C@H]2O[C@@H](Oc3c(-c4ccc(O)c(O)c4)oc4cc(O)cc(O)c4c3=O)[C@H](O)[C@@H](O)[C@@H]2O)[C@H](O)[C@H](O)[C@H]1O` [RUTIN] gave a pIC50 in data set [27] of 5.68.
In [32], `CC(C)OC(=O)[C@H](C)N[P@](=O)(OC[C@H]1O[C@@H](n2ccc(=O)[nH]c2=O)[C@](C)(F)[C@@H]1O)Oc1ccccc1` [SOFOSBUVIR] had a pIC50 of 4.83. Also, the CC50 in [33] was greater than 100 µM.
On to `O=c1c(O)c(-c2ccc(O[C@@H]3O[C@H](CO)[C@@H](O)[C@H](O)[C@H]3O)c(O)c2)oc2cc(O)cc(O)c12` [SPIRAEOSIDE], for which the pIC50 in [27] is 5.72.
